Measured values: ChEMBL document CHEMBL4130620, “Disconnecting the Estrogen Receptor Binding Properties and Antimicrobial Properties of Parabens through 3,5-Substitution” (ACS Med Chem Lett, 2018)
Converted amounts (≈) assume the structure as drawn.

How the values were obtained:
[1] = system: Staphylococcus aureus; assay: microbe, parasite or virus in culture; conditions: 155554A, 16 h
Description: Antibacterial activity against Staphylococcus aureus 155554A incubated for 16 hrs by microdilution assay

[2] = target: T1, Estrogen receptor (Homo sapiens, UniProt P03372)
T1 sequence (P03372 whole entry): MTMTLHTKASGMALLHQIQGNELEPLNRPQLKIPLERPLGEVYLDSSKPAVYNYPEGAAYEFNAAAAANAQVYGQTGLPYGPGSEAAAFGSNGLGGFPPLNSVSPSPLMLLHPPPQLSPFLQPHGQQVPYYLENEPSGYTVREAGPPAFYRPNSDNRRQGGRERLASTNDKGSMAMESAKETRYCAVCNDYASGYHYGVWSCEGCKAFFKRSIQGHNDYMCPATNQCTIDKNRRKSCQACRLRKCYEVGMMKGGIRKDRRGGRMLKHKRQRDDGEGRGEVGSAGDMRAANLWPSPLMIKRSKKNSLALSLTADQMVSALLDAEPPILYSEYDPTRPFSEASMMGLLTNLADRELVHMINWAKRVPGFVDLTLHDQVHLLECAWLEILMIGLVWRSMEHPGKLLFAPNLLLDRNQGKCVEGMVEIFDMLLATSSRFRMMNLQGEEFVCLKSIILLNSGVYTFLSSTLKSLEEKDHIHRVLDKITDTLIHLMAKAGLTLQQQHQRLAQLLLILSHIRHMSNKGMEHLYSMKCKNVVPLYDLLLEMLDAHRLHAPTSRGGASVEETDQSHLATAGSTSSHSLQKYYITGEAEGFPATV
Description: Displacement of Fluor.ES2 Green from human ERalpha by TR-FRET competitive binding assay

[3] = target: T2, Estrogen receptor alpha (ERalpha) (Homo sapiens, UniProt P03372); assay: Safety index, ratio of IC50 for test compound to IC50 for paraben for displacement of Fluor.ES2 Green from human ERalpha by TR-FRET competitive binding assay; conditions: probe Fluor.ES2 Green, read-out: Ratio IC50
T2 sequence (P03372 whole entry): T1 sequence (P03372 whole entry)

[4] = target: T2, Estrogen receptor alpha (ERalpha); assay: Displacement of Fluor.ES2 Green from human ERalpha at 100000 nM by TR-FRET competitive binding assay; conditions: probe Fluor.ES2 Green
[5] = system: MCF7; type: ADME, cell-based; conditions: human, mcf7, 24 h
[6] = Solubility of the compound at >512 ug/ml; type: physicochemical
[7] = system: MCF7; type: toxicity, cell-based; conditions: human
[8] = system: MCF7; type: toxicity, cell-based; conditions: human; remark: listed apart in the source

CCCCOC(=O)c1cc([N+](=O)[O-])c(O)c([N+](=O)[O-])c1
MIC [1]: 1810 µM (≈ 514 µg/mL) | IC50 [2]: > 200 µM | selectivity ratio [3]: 20 to 40 | inhibition at 100 µM [4]: 20% | Activity [5]: Non-Toxic

CCCCOC(=O)c1ccc(O)c(Br)c1
MIC [1]: 236 µM (≈ 64.5 µg/mL) | IC50 [2]: 8.21 µM | Activity [5]: Non-Toxic

CCOC(=O)c1ccc(O)cc1 [ETHYLPARABEN]
Activity [5]: Toxic

CCCCOC(=O)c1cc(O)c(O)c(O)c1 [BUTYL GALLATE]
MIC [1]: 2060 µM (≈ 465 µg/mL) | IC50 [2]: 8.97 µM | Activity [5]: Non-Toxic

CCCCOC(=O)c1ccc(O)cc1 [BUTYLPARABEN]
MIC [1]: 1320 µM (≈ 256 µg/mL) | Activity [5]: Toxic

CCCCOC(=O)c1cc(OC)c(O)c(OC)c1
MIC [1]: 924 µM (≈ 235 µg/mL) | IC50 [2]: > 200 µM | selectivity ratio [3]: 20 to 40 | inhibition at 100 µM [4]: 20% | Activity [5]: Non-Toxic | solubility [6]: Insoluble

CCCCOC(=O)c1ccc(O)c(I)c1
MIC [1]: 199 µM (≈ 63.7 µg/mL) | IC50 [2]: 7.98 µM | Activity [5]: Non-Toxic

CCCCCCCCOC(=O)c1cc(O)c(O)c(O)c1 [OCTYL_GALLATE]
MIC [1]: 210 µM (≈ 59.3 µg/mL) | IC50 [2]: 8.74 µM | selectivity ratio [3]: 20 to 40 | Activity [5]: Non-Toxic

CCCCOC(=O)c1cc(I)c(O)c(I)c1
MIC [1]: 36 µM (≈ 16.1 µg/mL) | IC50 [2]: 34.6 µM | Activity [7]: Non-Toxic | selectivity ratio [3]: 20 to 40 | Activity [8]: Non-Toxic | Activity [5]: Non-Toxic

CCCCOC(=O)c1cc(C)c(O)c(C)c1
MIC [1]: > 1040 µM | IC50 [2]: 32.5 µM | selectivity ratio [3]: 20 to 40 | Activity [5]: Non-Toxic | solubility [6]: Insoluble

CC1(C)S[C@@H]2[C@H](NC(=O)Cc3ccccc3)C(=O)N2[C@H]1C(=O)O [PENICILLIN G]
MIC [1]: 0.749 µM (≈ 0.25 µg/mL)

CCCCCCCCOC(=O)c1cc(I)c(O)c(I)c1
MIC [1]: 31.8 µM (≈ 16 µg/mL) | IC50 [2]: 13.2 µM | Activity [7]: Non-Toxic | selectivity ratio [3]: 20 to 40 | Activity [8]: Non-Toxic | Activity [5]: Non-Toxic

CCCCOC(=O)c1cc(C(C)(C)C)c(O)c(C(C)(C)C)c1
MIC [1]: 834 µM (≈ 256 µg/mL) | IC50 [2]: > 200 µM | selectivity ratio [3]: 20 to 40 | inhibition at 100 µM [4]: 20% | Activity [5]: Non-Toxic | solubility [6]: Insoluble

CCCCOC(=O)c1cc(Cl)c(O)c(Cl)c1
MIC [1]: 245 µM (≈ 64.5 µg/mL) | IC50 [2]: 55.3 µM | selectivity ratio [3]: 20 to 40 | Activity [5]: Non-Toxic

CCCCOC(=O)c1cc(Br)c(O)c(Br)c1
MIC [1]: 91 µM (≈ 32 µg/mL) | IC50 [2]: 39.4 µM | Activity [7]: Non-Toxic | selectivity ratio [3]: 20 to 40 | Activity [8]: Non-Toxic | Activity [5]: Non-Toxic

CCCCCCCCOC(=O)c1cc([N+](=O)[O-])c(O)c([N+](=O)[O-])c1
MIC [1]: 47 µM (≈ 16 µg/mL) | IC50 [2]: 60.4 µM | Activity [7]: Non-Toxic | selectivity ratio [3]: 20 to 40 | Activity [8]: Non-Toxic | Activity [5]: Non-Toxic

CCCCOC(=O)c1c(F)c(F)c(O)c(F)c1F
MIC [1]: 483 µM (≈ 129 µg/mL) | IC50 [2]: 29.4 µM | selectivity ratio [3]: 20 to 40 | Activity [5]: Non-Toxic

CCCCCCCCOC(=O)c1cc(C)c(O)c(C)c1
MIC [1]: 213 µM (≈ 59.3 µg/mL) | IC50 [2]: 16.2 µM | selectivity ratio [3]: 20 to 40 | Activity [5]: Non-Toxic
